Where two headings read alike, the source gives them in different places.
Tests used:
[1] = target: human wild type TTR (Homo sapiens (Human), UniProt P02766); experiment: Isothermal titration calorimetry (ITC) of ligands against TTR; assay type: binding; conditions: for TΔS binding entropy / ΔG binding free energy / ΔH binding enthalpy: ITC; for Kd: TTR 2 μM titrated with ligand 25 μM
Protocol: Calorimetric titrations were carried out on a VP-ITC calorimeter (MicroCal, Northhampton, Mass.). […] Prior to each titration, all samples were degassed for 10 minutes. The initial injection of 3.0 μL was followed by 30 injections of 8.0 μL each (25° C.) to the point that TTR was fully saturated with ligand. Integration of the thermogram after subtraction of blanks yielded a binding isotherm that was analyzed with MicroCal Origin 5.0 software.

[2] = target: T1, TTR (Homo sapiens (Human), UniProt P02766); experiment: Fluorescence polarization displacement assay (probe 5 displaced from TTR); assay type: binding; conditions: probe 5 100 nM, TTR 200 nM; read-out: FP Kapp (apparent binding constant)
Protocol: The affinity of test compounds to TTR was determined as follows. […] The samples were allowed to equilibrate by agitation for 20 min at room temperature and the fluorescence polarization was measured as described above. The data were fit to the following equation [y=(A−D)/(1+(x/C)^B)+D] where A=maximum FP signal, B=slope, C=apparent binding constant (Kapp), and D=minimum FP signal. The apparent binding constant was reported as mean for triplicate experiments and the best data fit was determined by R^2 value.

[3] = target: T1, TTR; conditions: read-out: Kd (reported affinity for TTR); cited from earlier work
[4] = target: wild type biotinylated TTR (Homo sapiens (Human), UniProt P02766); experiment: Surface plasmon resonance (SPR) assay for TTR-ligand interaction; assay type: binding
Protocol: To an ice-cold solution of TTR (20 μM) in PBS was added EZ-Link Sulfo-NHS-LC-Biotin at a ratio of ˜2:1 (biotin:TTR) (minimal biotinylation) and the solution was incubated at room temperature. After 1 hour, un-reacted biotin was removed by passing the sample over a fast (FPLC) desalting column (Superdex™ 75) equilibrated with PBS.
SPR measurements were performed at 25° C. using a Biacore T100 (GE Healthcare) instrument equilibrated in 1% DMSO in PBS as a running buffer. After pretreatment of the streptavidin-coated chip (Sensor Chop SA, Biacore), ˜4000 RU biotinylated TTR was immobilized on one channel leaving the second flow channel as a blank (streptavidin alone) control. For binding measurements, HTS hits were diluted in running buffer (1% DMSO/PBS) and different dilution series were flowed over the chip at 50 μL/min ([…], 600 s wash). A zero concentration sample was used as a negative control. The kinetic data was fitted to a one-to-one binding model using Biacore T100 evaluation software.

[5] = target: WT TTR (Homo sapiens (Human), UniProt P02766); experiment: Acid-mediated fibril formation assay for TTR amyloidogenesis (turbidity); conditions: substoichiometric: ligand 3.0 μM, TTR 3.6 μM, monitored over 5 days
Protocol: The efficacy of each compound to inhibit TTR amyloidogenesis was determined by monitoring the turbidity of TTR aggregation at acidic pH, as described previously. […] The final 1 ml sample mixture was vortexed, then incubated at 37° C. for 72 hours, after which the sample was vortexed and the optical density was measured at 400 nm on a Beckman DU® 640 spectrophotometer. […] The optical density was also corrected for the absorption of all test compounds in the absence of TTR. […] The optical density (400 nm) was measured as described above at 0, 24, 48, 72, 96, and 120 hours. All assays were performed in triplicate and the average values obtained are presented.
TTR was preincubated with small molecules for 30 min at room temperature before amyloidosis was initiated (lowering pH to 4.4, incubation at 37° C.). […] The amyloidogenesis inhibition efficacy of each compound was determined by monitoring the turbidity of TTR (400 nm). The extent of TTR amyloidogenesis was quantitated at a fixed time point (72 h). All amyloid fibril formation data was normalized to TTR amyloidogenesis in the absence of inhibitor, assigned to be 100% fibril formation. […] The aggregation inhibition was monitored over 5 days using the acid-mediated fibril formation assay (compared to 3 days for the fixed time point described above) (FIG. 5B).

[6] = target: T1, TTR; experiment: Fluorescence polarization saturation binding experiment
Protocol: The binding of probe 5 for TTR was evaluated as follows. […] The samples were allowed to equilibrate by agitation for 20 min at room temperature. Fluorescence polarization (excitation λ 485 nm, emission λ 525 nm, Cutoff λ 515 nm) measurements were taken using SpectraMax M5 Microplate Reader (Molecular Devices). […] Nonspecific FP, produced by the free fluorescent probe 5 as well as by binding of 5 to the plate, was equal to 70±10 mP.

[7] = target: IL-2 (Homo sapiens (Human), UniProt P60568); conditions: cited from earlier work
[8] = 25° C., one-to-one binding model, read-out: Kd (ITC)

Chain of IL-2 (P60568 21-153): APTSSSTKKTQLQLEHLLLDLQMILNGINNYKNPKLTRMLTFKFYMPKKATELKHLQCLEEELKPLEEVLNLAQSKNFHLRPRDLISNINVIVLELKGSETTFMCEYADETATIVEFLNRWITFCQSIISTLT

O=C(O)c1ccc(-c2c(F)cccc2F)cc1 [Compound 1, reference compound]
TΔS binding entropy [1]: -21.72 ± 0.26 kcal/mol
ΔG binding free energy [1]: -9.74 ± 0.10 kcal/mol
ΔH binding enthalpy [1]: -31.46 ± 0.37 kcal/mol
Kd [1, 8]: 72.5 ± 4.7 nM
Kd ([1]; read-out: ITC Kd): 72.4 nM
apparent binding constant (Kapp) [2]: 231 nM
Kd [3]: 80 nM

O=C(O)Cc1ccccc1Nc1c(Cl)cccc1Cl [Diclofenac, reference compound]
TΔS binding entropy [1]: 4.08 ± 0.37 kcal/mol
ΔG binding free energy [1]: -8.78 ± 0.59 kcal/mol
ΔH binding enthalpy [1]: -4.69 ± 0.42 kcal/mol
TΔS binding entropy ([1]; listed as diclofenac): 4.08 ± 0.37 kcal/mol
ΔG binding free energy ([1]; listed as diclofenac): -8.78 ± 0.59 kcal/mol
ΔH binding enthalpy ([1]; listed as diclofenac): -4.69 ± 0.42 kcal/mol
Kd [1, 8]: 370 nM
Kd ([1]; read-out: ITC Kd): 370 nM
Kd [2]: 4660 nM
Kd ([4]; 25° C., read-out: Kd (SPR, equilibrium / steady state analysis)): 124 ± 8.91 nM
koff ([4]; SPR): 1.01 s⁻¹
kon ([4]; SPR): 8.18e+06 M⁻¹ s⁻¹
lower target residence time than 7 ([4]; SPR): ~40 ×
inhibition of fibril formation [5]: ~55%

Fluorescein isothiocyanate [FITC]
change in FP signal upon addition of TTR [6]: no change in the FP signal

Ro26-4550
IC50 ([7]; read-out: IC50 (IL-2 antagonist)): 3000 to 6000 nM
IC50 ([7]; read-out: IC50 (Ro26-4550 bound to IL2)): 6000 nM

From US8877795B2, “Identification of stabilizers of multimeric proteins” (The Board of Trustees of the Leland Stanford Junior …, priority 2010, dated 2014)
